Results taken from publication PMC10529594, “Strasseriolides display in vitro and in vivo activity against trypanosomal parasites and cause morphological and size defects in Trypanosoma cruzi” (PLOS Neglected Tropical Diseases, 2023).
Where “and” joins values, the source holds several entries; their conditions need not be identical. Equal values may be shown once.

Experiments:
[1] = tested on: T. cruzi Tulahuen C4 trypomastigotes; experiment: T. cruzi trypomastigote viability assay (resazurin fluorescence); format: cell-based, Trypanosoma cruzi; details: Tulahuen C4, 72 hours at 37°C
Method: Tulahuen T. cruzi trypomastigotes were recovered 6 days post infection from the supernatant of harvested infected L6 cells cultures after 3 hours at 37°C. 90 μL of parasite culture at a density of 5 × 10^6 cells in RPMI 1640 media were dispensed into 96 Nunc flat bottom assay plates containing 10 μL of each compound.
In the fluorescence assay, plates were incubated for 24 and 48 hours after which 10 μL of the resazurin solution were added to each well. Plates were further incubated for 24 hours and fluorescence was measured at 550/590 nm using a Tecan Infinite 200 microplate reader. […] Final maximal DMSO percentage in the well was 0.1% and compound concentrations ranged from 0.2 to 100 μM.

T. cruzi epimastigotes = experiment: FACS analysis of T. cruzi epimastigotes (cell cycle, size and complexity); format: cell-based, Trypanosoma cruzi; details: for Foward Scatter (FSC) - Geometric Mean, single experiment / Foward Scatter (FSC) - Geometric Mean, Average / size reduction with respect to untreated parasites: 72 h
Method: FACS analysis was used to study cell cycle progression and cellular parameters such as size and complexity. 5 × 10^6 T. cruzi epimastigotes were harvested by centrifugation at 1,000×g and 4°C after 72 hours of incubation in a 6-well plate in the presence and in absence of test compounds. Pellets of cells were washed with 5 mL of PBS and fixed in a solution of 70% ice-cold ethanol/PBS at -20°C overnight. Cells were then collected by centrifugation, washed with PBS and stained with 40 μg/mL of propidium iodide in PBS containing 10 μg/mL of RNase A at 37°C for 30 minutes. Fluorescence was monitored with a Becton Dickinson FACSCalibur using BD CellQuest Pro version 4.0.2 software with a total of 10,000 events acquired for each sample. The different cell populations as well as mean cellular parameters were determined by FlowJo software.

L6 rat myoblast cells = experiment: Cytotoxicity evaluation in L6 cells (resazurin); format: cell-based; details: Rattus norvegicus, Myoblast; 72 h, resazurin; read-out: EC50 L6
Method: One hundred microliters of supplemented RPMI 1640 medium containing the compounds and controls were added to L6 rat myoblast cells previously seeded (4,000 cells per well) in a 96-well microplate. After 72 hours at 37°C the viable cell number was determined by resazurin reduction. 20 μL of resazurin at 0.11 mg/mL in PBS 1X were added to each well and incubated in the dark for 2 hours at 37°C. Cell viability was estimated by measuring the final fluorescence at 570–590 nm in a Tecan Infinite F200 plate reader.

[2] = tested on: L. donovani MHOM/ET/67/HU3 transgenic intracellular amastigotes; experiment: L. donovani intracellular amastigote assay (luciferase, THP-1 macrophages); format: cell-based; details: Leishmania donovani, THP-1, 72 h, read-out: EC50 L. donovani
Method: Leishmania donovani MHOM/ET/67/HU3 cells with the luciferase gene integrated into the parasite genome was obtained as described. Parasites were grown at 28°C in RPMI 1640-modified medium supplemented with 20% heat-inactivated fetal bovine serum (iFBS, Invitrogen) with […] of hygromycin B.
THP-1 cells were differentiated into macrophages with 20 ng/mL of PMA in a 96-well plate at 3 × 10^4 cells per well for 48 hours followed by 24 hours of culture in fresh medium. Cells were then infected with transgenic stationary L. donovani MHOM/ET/67/HU3 promastigotes expressing the luciferase gene at a multiplicity of infection (MOI) of 10. A volume of 100 μL of culture media containing the test compounds was added to each well and the plates were incubated at 37°C for 72 hours. Luminescence was measured using the Promega kit luciferase assay system.

[3] = tested on: T. cruzi Tulahuen C4 epimastigotes; experiment: T. cruzi epimastigotes growth inhibition assay (resazurin); format: cell-based, Trypanosoma cruzi; details: 72 h
Method: (§1) The Trypanosoma cruzi Tulahuen strain used is a genetically modified strain that expresses the Escherichia coli β-galactosidase gene, lacZ [31]. It was kindly supplied by Marcel Kaiser (Swiss Tropical and Public Health Institute). The T. cruzi Tulahuen C4 strain was cultured in RPMI-1640 supplemented with 10% inactivated FBS (iFBS), 1.7 mM L-glutamine, 100 U/mL penicillin, and […] at 37°C and 5% CO2. L6 rat skeletal muscle cells were purchased from ATCC (reference CRL-1458) and used as host cells for infection with transgenic T. cruzi trypomastigotes. Epimastigotes were obtained by differentiation in LIT medium with 10% iFBS at 28°C from trypomastigote forms.
A resazurin-based assay was set up in 96-well microplates containing 10 μL of test compound at concentrations ranging from 0.39 to 200 μM and log phase parasites seeded at 2 × 10^5 cells per well in a final volume of 100 μL. Maximum DMSO percentage in the well was 0.2%. Positive and negative growth controls were included. Following 72 hour incubation at 28°C with orbital shaking, 10 μL of resazurin solution were added to each well and the plates were returned to the incubator for 4 hours. Resazurin reduction was correlated to cell viability by fluorescence measurement with excitation and emission wavelength bands centered at 550 and 590 nm, respectively, in a Tecan Infinite 200 microplate reader.

[4] = tested on: T. cruzi Tulahuen C4 intracellular amastigotes; experiment: β-D-galactosidase transgenic T. cruzi assay (intracellular amastigotes in L6 cells, CPRG); format: cell-based; details: Trypanosoma cruzi
Method: as §1
A Thermo Scientific Multidrop Combi dispenser was used to dispense 55 μL of T. cruzi infected L6 cells (2 ×10^3 cells per well) into 384-well Corning assay plates already containing 5 μL of each compound at concentrations ranging from 0.0015 to 50 μM and controls. The plates were incubated at 37°C for 96 hours upon which 15 μL of lysis buffer (0.5 mM CPRG, 0.5% NP40) were added to each well and further incubated for 4 hours in the dark. Absorbance at 585 nm was measured in a Perkin Elmer Envision plate reader.

[5] = 72-hour drug exposure, FACS with PI staining, EC30, average
[6] = 72-hour drug exposure, FACS with PI staining, EC30, single replicates
[7] = 72-hour drug exposure, FACS with PI staining, EC70, average
[8] = 72-hour drug exposure, FACS with PI staining, EC70, single replicates

C/C1=C\[C@H](C)[C@@H](O)C[C@@H](O)/C(C)=C/[C@H](C)C[C@@H](C)CC[C@@H]([C@@H](C)C(=O)O)OC(=O)[C@@H](C)C1 [Strasseriolide D, strasseriolide D]
EC50 ([1]; Trypanosoma cruzi, TULAHUEN, 72 h): 3.4 µM
EC50 [1]: 3.38 µM
% Cells G1, Average (T. cruzi epimastigotes; [5]): 48.0485%
% Cells G2/M, Average (T. cruzi epimastigotes; [5]): 33.3241%
% Cells S, Average (T. cruzi epimastigotes; [5]): 15.9233%
% Cells post G2/M, Average (T. cruzi epimastigotes; [5]): 0.01106%
% Cells sub-G1, Average (T. cruzi epimastigotes; [5]): 2.693%
% Cells G1, individual replicates (T. cruzi epimastigotes; [6]): 50.4058% and 45.6911%
% Cells G2/M, individual replicates (T. cruzi epimastigotes; [6]): 32.7574% and 33.8908%
% Cells S, individual replicates (T. cruzi epimastigotes; [6]): 14.3321% and 17.5145%
% Cells post G2/M, individual replicates (T. cruzi epimastigotes; [6]): 0.6783% and -0.6562%
% Cells sub-G1, individual replicates (T. cruzi epimastigotes; [6]): 1.8263% and 3.56%
% Cells G1, Average (T. cruzi epimastigotes; [7]): 50.7294%
% Cells G2/M, Average (T. cruzi epimastigotes; [7]): 37.5216%
% Cells S, Average (T. cruzi epimastigotes; [7]): 12.1278%
% Cells sub-G1, Average (T. cruzi epimastigotes; [7]): 1.9646%
% Cells G1, individual replicates (T. cruzi epimastigotes; [8]): 49.2764% and 52.1825%
% Cells G2/M, individual replicates (T. cruzi epimastigotes; [8]): 34.0219% and 41.0212%
% Cells S, individual replicates (T. cruzi epimastigotes; [8]): 15.873% and 8.383%
% Cells post G2/M, individual replicates (T. cruzi epimastigotes; [8]): -1.15% and -3.537%
% Cells sub-G1, individual replicates (T. cruzi epimastigotes; [8]): 1.978% and 1.951%
Foward Scatter (FSC) - Geometric Mean, single experiment (T. cruzi epimastigotes; EC30): 81.9 and 80.4
Foward Scatter (FSC) - Geometric Mean, Average (T. cruzi epimastigotes; EC30, control 96.65): 81.15
Foward Scatter (FSC) - Geometric Mean, single experiment (T. cruzi epimastigotes; EC70): 77.8 and 72.2
Foward Scatter (FSC) - Geometric Mean, Average (T. cruzi epimastigotes; EC70, control 96.65): 75
size reduction with respect to untreated parasites (T. cruzi epimastigotes; at EC30): 16%
size reduction with respect to untreated parasites (T. cruzi epimastigotes; at EC70): 24%
EC50 (L6 rat myoblast cells): > 100 µM
EC50 [2]: 13.6 µM
EC30, epimastigotes ([3]; from dose-response curve): 36 µM
EC70, epimastigotes ([3]; from dose-response curve): 68 µM
EC50 ([3]; Trypanosoma cruzi, TULAHUEN, Tulahuen C4, 72 h, resazurin): 42.4 µM
inhibition at 0.00152588 µM ([4]; TULAHUEN, L6, T. cruzi amastigotes, 96-hour treatment, 0.00152588 µM, read-out: Growth inhibition (%) Average): 7.88%
inhibition at 0.00305176 µM ([4]; TULAHUEN, L6, T. cruzi amastigotes, 96-hour treatment, 0.00305176 µM, read-out: Growth inhibition (%) Average): 6.33%
inhibition at 0.00610352 µM ([4]; TULAHUEN, L6, T. cruzi amastigotes, 96-hour treatment, 0.00610352 µM, read-out: Growth inhibition (%) Average): 2.28%
inhibition at 0.012207 µM ([4]; TULAHUEN, L6, T. cruzi amastigotes, 96-hour treatment, 0.012207 µM, read-out: Growth inhibition (%) Average): 4.26%
inhibition at 0.0244141 µM ([4]; TULAHUEN, L6, T. cruzi amastigotes, 96-hour treatment, 0.0244141 µM, read-out: Growth inhibition (%) Average): 4.84%
inhibition at 0.0488281 µM ([4]; TULAHUEN, L6, T. cruzi amastigotes, 96-hour treatment, 0.0488281 µM, read-out: Growth inhibition (%) Average): 2.75%
inhibition at 0.0976562 µM ([4]; TULAHUEN, L6, T. cruzi amastigotes, 96-hour treatment, 0.0976562 µM, read-out: Growth inhibition (%) Average): 2.22%
inhibition at 0.195312 µM ([4]; TULAHUEN, L6, T. cruzi amastigotes, 96-hour treatment, 0.195312 µM, read-out: Growth inhibition (%) Average): 7.23%
inhibition at 0.390625 µM ([4]; TULAHUEN, L6, T. cruzi amastigotes, 96-hour treatment, 0.390625 µM, read-out: Growth inhibition (%) Average): 4.8%
inhibition at 0.78125 µM ([4]; TULAHUEN, L6, T. cruzi amastigotes, 96-hour treatment, 0.78125 µM, read-out: Growth inhibition (%) Average): 4.2%
inhibition at 1.5625 µM ([4]; TULAHUEN, L6, T. cruzi amastigotes, 96-hour treatment, 1.5625 µM, read-out: Growth inhibition (%) Average): 8.54%
inhibition at 3.125 µM ([4]; TULAHUEN, L6, T. cruzi amastigotes, 96-hour treatment, 3.125 µM, read-out: Growth inhibition (%) Average): 21.2%
inhibition at 6.25 µM ([4]; TULAHUEN, L6, T. cruzi amastigotes, 96-hour treatment, 6.25 µM, read-out: Growth inhibition (%) Average): 66.1%
inhibition at 12.5 µM ([4]; TULAHUEN, L6, T. cruzi amastigotes, 96-hour treatment, 12.5 µM, read-out: Growth inhibition (%) Average): 100%
inhibition at 25 µM ([4]; TULAHUEN, L6, T. cruzi amastigotes, 96-hour treatment, 25 µM, read-out: Growth inhibition (%) Average): 112%
inhibition at 50 µM ([4]; TULAHUEN, L6, T. cruzi amastigotes, 96-hour treatment, 50 µM, read-out: Growth inhibition (%) Average): 113%
EC50 ([4]; Tulahuen C4 in L6 cells, 96 h, CPRG): 5.61 µM
